One block for each compound: values may come before it.
Tests used:
[1] = pH 2, reversed-phase HPLC
Protocol: The octanol-water (buffer) partition coefficient of ^18F-Alakyne and ^18F-Ala-folate was determined using the standard shake-flask method. Relative lipophilicity (k’ values) was determined by HPLC with an isocratic acetonitrile-phosphoric acid buffer eluent system at pH 2.4 as described elsewhere.

folate receptor (FR) = biological target: T1, folate receptor (FR) (Homo sapiens, UniProt P15328); experiment: Displacement assay using KB cells and [^3H]folic acid; format: binding
T1 construct: endogenous in cells; host or cells: KB cells (human, from the German Collection of Microorganisms and Cell Cultures)
T1 sequence (P15328 25-257): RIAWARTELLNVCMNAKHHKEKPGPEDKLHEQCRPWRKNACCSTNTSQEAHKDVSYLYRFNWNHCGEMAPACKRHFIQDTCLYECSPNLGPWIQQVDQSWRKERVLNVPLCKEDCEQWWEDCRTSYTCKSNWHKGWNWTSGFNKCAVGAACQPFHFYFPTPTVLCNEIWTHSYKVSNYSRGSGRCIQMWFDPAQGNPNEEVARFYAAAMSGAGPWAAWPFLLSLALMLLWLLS

[2] = Stability in human serum albumin at 37 °C; settings: 2 h
Protocol: The in vitro stability was assessed in human serum albumin at 37 °C.
For testing the stability, 200 µL of ^18F-DBCO-folate or ^18F-Ala-folate (ca. 4 MBq) were incubated at 37 °C in 500 µL human serum albumin. After predetermined time points plasma proteins were precipitated with 600 µL ice-cold acetonitrile followed by centrifugation (10,000 rpm, 10 min). An aliquot of the supernatant was injected into an analytical radio-HPLC.

FR-positive KB cells = experiment: Internalization studies in FR-positive KB cells; format: cell-based, human; settings: 5 nM, 37 °C, 1 h
Protocol: (§1) Two different temperatures (4 °C for receptor binding, 37 °C for receptor binding and internalization) and two different concentrations were assessed. […] Both radiofolates show a concentration as well as temperature depended increase of activity in the FR positive cells. […] This effect is not fully understood, but we presume the high lipophilicity in combination with the increased concentration being responsible for this high non-specific binding. […] Thus, about 90% of ^18F-DBCO-folate remained in solution, which is ideal for such a radiotracer assay set-up (see supporting information for pie chart of activity distribution, Figure S6). For ^18F-Ala-folate the overall receptor-bound and internalized fractions are similar to ^18F-DBCO-folate (see supporting information for pie chart of activity distribution, Figure S7).
As folate-receptor positive control, KB cells (derived from human cervical carcinoma; obtained from German Collection of Microorganisms and Cell Cultures), and OC316 cells (derived from human ovarian adenocarcinoma) as negative control were used. For FACS analysis, data of both cell lines see supporting information Figure S5. The cells were cultured in folate deficient RPMI 1640 medium containing 10% FCS, 1% penicillin-streptomycin and HEPES buffer (10 mM, 5 mL) grown at 37 °C in a humidified atmosphere containing 5% CO2. […] To determine the internalized fraction of both new ^18F-folate derivatives, different concentrations (1 and 5 nM) of the labeled agents were incubated with one million KB or OC316 cells at 4 °C and 37 °C. […] After 1h, the supernatant was removed, cells washed with PBS and with an acetate buffer (pH 3).

FR-negative OC316 cells = experiment: Internalization studies in FR-negative OC316 cells; format: cell-based, human; settings: blocked KB cells and FR-negative OC316 cells
Protocol: as §1
As folate-receptor positive control, KB cells (derived from human cervical carcinoma; obtained from German Collection of Microorganisms and Cell Cultures), and OC316 cells (derived from human ovarian adenocarcinoma) as negative control were used. For FACS analysis, data of both cell lines see supporting information Figure S5. The cells were cultured in folate deficient RPMI 1640 medium containing 10% FCS, 1% penicillin-streptomycin and HEPES buffer (10 mM, 5 mL) grown at 37 °C in a humidified atmosphere containing 5% CO2. […]

healthy balb/c mice = experiment: Ex vivo biodistribution in healthy balb/c mice; settings: healthy balb/c mice, 60 min p.i.
Source text: (§2) All animal experiments were approved by the local ethical committee (permission no. 23177-07/G15-1-033). Balb/c and balb/c nude (Balb/c AnNRj-Foxn1nu) mice were kept on a folate-deficient rodent diet to reduce their blood level of folate to one found in humans. After 7 days of acclimatization, human KB tumor cells (2.5 x 10^6 cells in PBS) were inoculated in the right shoulder of each balb/c nude mouse. All in vivo treatments and imaging experiments were done under isoflurane anesthesia. Eleven or twelve days after inoculation, animals were intravenously injected with ^18F-DBCO-Folate and ^18F-Ala-Folate (5–8 MBq, 100–200 µL) via a lateral tail vein. […] PET/MRI-studies were performed on a nanoScan PET/MRI (Mediso, Budapest, Hungary). First MRI scans (Material Map for co-registration of the PET scan; 3D; GRE-EXT, FOV; slice thickness: 0.6 mm; TE: 2 ms; TR: 15 ms; flip angle: 25 deg) were acquired and then either a dynamic scan over 60 min starting with injection of the radiotracer or a static scan for 10 min after 50 min p.i. were performed. All mice, which underwent ex vivo biodistribution, were scanned first. Afterwards co-registered PET/MR images were analyzed via PMOD (version 3.6) and Inveon Research Workplace (version 4.2). For ex vivo biodistribution studies mice were euthanized 60 min p.i. and organs of interest were dissected, weighed, and measured in a γ-counter (PerkinElmer 2470 Wizard2, Perkin Elmer, Rodgau, Germany). The incorporated radioactivity was expressed as percentage of injected dose per gram of tissue (% ID/g).

KB-tumor bearing mice = experiment: Ex vivo biodistribution in KB-tumor bearing mice; settings: 60 min p.i.; for uptake Appendix / uptake Blood / uptake Heart / uptake Inguinal lymph nodes / uptake Intestines (empty) / uptake Left kidney / uptake Liver / uptake Lung / uptake Muscle / uptake Pancreas / uptake Right kidney / uptake Spleen / uptake Stomach (empty) / uptake Tumor: KB xenograft mice
Source text: as §2

KB tumor-bearing mice = experiment: µPET imaging in KB tumor-bearing mice; format: in vivo, mouse
Source text: as §2

[3] = design: method as in doi:10.1039/C5MD00508F; settings: pH 7.4, shake-flask; cited from earlier work
[4] = blocked with 100 µg native folic acid
[5] = blockade with 100 µg native folic acid

SMILES: Nc1nc2ncc(CNc3ccc(C(=O)NC(CCC(=O)NCCOCCOCCOCCn4cc(CNC(CF)C(=O)O)nn4)C(=O)O)cc3)nc2c(=O)[nH]1 (stereo not shown) [^19F-Ala-folate]
k′ Value [1]: 0.27 | Ki (folate receptor (FR); Cheng-Prusoff equation with Kd ([^3H]folic acid) = 1.0 nM): 5.5 ± 0.4 nM | IC50 (folate receptor (FR); KB-cells, [^3H]folic acid): 6.4 ± 0.5 nM | pIC50 (folate receptor (FR); KB-cells, [^3H]folic acid): 8.20 ± 0.05

still intact after incubation [2]: > 90% | uptake Blood (healthy balb/c mice): 0.08 ± 0.01 %ID/g tissue | uptake Heart (healthy balb/c mice): 0.09 ± 0.01 %ID/g tissue | uptake Inguinal lymph nodes (healthy balb/c mice): 0.18 ± 0.08 %ID/g tissue | uptake Intestines (empty) (healthy balb/c mice): 0.87 ± 0.57 %ID/g tissue | uptake Left kidney (healthy balb/c mice): 3.90 ± 0.38 %ID/g tissue | uptake Liver (healthy balb/c mice): 0.24 ± 0.02 %ID/g tissue | uptake Lung (healthy balb/c mice): 0.35 ± 0.27 %ID/g tissue | uptake Muscle (healthy balb/c mice): 0.06 ± 0.01 %ID/g tissue | uptake Pancreas (healthy balb/c mice): 0.08 ± 0.01 %ID/g tissue | uptake Right kidney (healthy balb/c mice): 3.99 ± 0.37 %ID/g tissue | uptake Spleen (healthy balb/c mice): 0.07 ± 0.02 %ID/g tissue | uptake Blood (healthy balb/c mice; [4]): 0.12 ± 0.05 %ID/g tissue | uptake Heart (healthy balb/c mice; [4]): 0.11 ± 0.06 %ID/g tissue | uptake Inguinal lymph nodes (healthy balb/c mice; [4]): 0.10 ± 0.08 %ID/g tissue | uptake Intestines (empty) (healthy balb/c mice; [4]): 0.33 ± 0.22 %ID/g tissue | uptake Left kidney (healthy balb/c mice; [4]): 0.40 ± 0.07 %ID/g tissue | uptake Liver (healthy balb/c mice; [4]): 0.33 ± 0.08 %ID/g tissue | uptake Lung (healthy balb/c mice; [4]): 0.36 ± 0.11 %ID/g tissue | uptake Muscle (healthy balb/c mice; [4]): 0.07 ± 0.05 %ID/g tissue | uptake Pancreas (healthy balb/c mice; [4]): 0.09 ± 0.05 %ID/g tissue | uptake Right kidney (healthy balb/c mice; [4]): 0.38 ± 0.07 %ID/g tissue | uptake Spleen (healthy balb/c mice; [4]): 0.11 ± 0.06 %ID/g tissue | tumor/blood ratio (KB-tumor bearing mice): 5.61 | tumor/muscle ratio (KB-tumor bearing mice): 6.86 | uptake Appendix (KB-tumor bearing mice): 0.13 ± 0.02 %ID/g tissue | uptake Blood (KB-tumor bearing mice): 0.09 ± 0.04 %ID/g tissue | uptake Heart (KB-tumor bearing mice): 0.08 ± 0.02 %ID/g tissue | uptake Inguinal lymph nodes (KB-tumor bearing mice): 0.48 ± 0.14 %ID/g tissue | uptake Intestines (empty) (KB-tumor bearing mice): 0.42 ± 0.52 %ID/g tissue | uptake Left kidney (KB-tumor bearing mice): 4.83 ± 0.90 %ID/g tissue | uptake Liver (KB-tumor bearing mice): 0.18 ± 0.07 %ID/g tissue | uptake Lung (KB-tumor bearing mice): 0.17 ±0.06 %ID/g tissue | uptake Muscle (KB-tumor bearing mice): 0.07 ± 0.01 %ID/g tissue | uptake Pancreas (KB-tumor bearing mice): 0.07 ±0.01 %ID/g tissue | uptake Right kidney (KB-tumor bearing mice): 4.76 ± 0.89 %ID/g tissue | uptake Spleen (KB-tumor bearing mice): 0.06 ± 0.02 %ID/g tissue | uptake Stomach (empty) (KB-tumor bearing mice): 0.82 ± 0.64 %ID/g tissue | uptake Tumor (KB-tumor bearing mice): 0.48 ± 0.14 %ID/g tissue | uptake Appendix (KB-tumor bearing mice; [5]): 0.07 ± 0.01 %ID/g tissue | uptake Blood (KB-tumor bearing mice; [5]): 0.06 ± 0.04 %ID/g tissue | uptake Heart (KB-tumor bearing mice; [5]): 0.04 ± 0.02 %ID/g tissue | uptake Inguinal lymph nodes (KB-tumor bearing mice; [5]): 0.04 ± 0.02 %ID/g tissue | uptake Intestines (empty) (KB-tumor bearing mice; [5]): 0.56 ± 0.81 %ID/g tissue | uptake Left kidney (KB-tumor bearing mice; [5]): 0.30 ± 0.04 %ID/g tissue | uptake Liver (KB-tumor bearing mice; [5]): 0.14 ± 0.06 %ID/g tissue | uptake Lung (KB-tumor bearing mice; [5]): 0.13 ± 0.05 %ID/g tissue | uptake Muscle (KB-tumor bearing mice; [5]): 0.02 ± 0.01 %ID/g tissue | uptake Pancreas (KB-tumor bearing mice; [5]): 0.03 ± 0.02 %ID/g tissue | uptake Right kidney (KB-tumor bearing mice; [5]): 0.30 ± 0.02 %ID/g tissue | uptake Spleen (KB-tumor bearing mice; [5]): 0.05 ± 0.03 %ID/g tissue | uptake Stomach (empty) (KB-tumor bearing mice; [5]): 0.22 ± 0.09 %ID/g tissue | uptake Tumor (KB-tumor bearing mice; [5]): 0.09 ± 0.04 %ID/g tissue | tumor/liver ratio (KB-tumor bearing mice; liver including gallbladder): 2.58 | reduction of activity in the tumor in the blocked group (KB-tumor bearing mice; preinjection of excess native folic acid): 81% | uptake in the bones (in vivo defluorination) (KB tumor-bearing mice; PET): Negligible uptake
SMILES: Nc1nc2ncc(CNc3ccc(C(=O)NC(CCC(=O)NCCOCCOCCOCCn4nnc5c4-c4ccccc4CN(C(=O)CCNC(=O)CCOCCOCCOCC[18F])c4ccccc4-5)C(=O)O)cc3)nc2c(=O)[nH]1 (stereo not shown) [^18F-DBCO-folate]
fraction of tracer internalized (FR-positive KB cells): about 3% | fraction of tracer receptor bound (FR-positive KB cells): about 7% | fraction of tracer remained in solution (FR-positive KB cells): about 90% | non-specific binding (FR-negative OC316 cells): distinct non-specific binding | visualization of KB tumors in maximum intensity projection (MIP) PET images (KB tumor-bearing mice; static scan 50-60 min p.i.): impeded | logD7.4 Value [3]: 0.6 ± 0.07 [18]

SMILES: O=C(CCOCCOCCOCC[18F])NCCC(=O)N1Cc2ccccc2C#Cc2ccccc21 [^18F-DBCO]
logD7.4 Value [3]: 1.2 ± 0.07 [18]

Reference: publication PMC5874726, “Comparison Study of Two Differently Clicked ^18F-Folates—Lipophilicity Plays a Key Role” (Pharmaceuticals, 2018)
